From patent publication US20090088449A1, “4-ACYLAMINOPYRIDINE DERIVATIVE MEDIATED NEUROGENESIS” (MITSUBISHI TANABE PHARMA CORPORATION, priority 2006, published 2009)

How the values were obtained:
Human Neural Stem Cells [1] = experiment: MKC-231 in combination with an AMPA agonist, neuronal differentiation of human neural stem cells; type: cell-based; settings: for EC50: Homo sapiens, Neural stem cell
Method: FIG. 4 is a dose-response curve showing enhancement of the effects of the agent MKC-231 on neuronal differentiation by combination with an AMPA agonist (AMPA). Data is presented as the percentage of the neuronal positive control, with basal media values subtracted.
FIG. 6 is the average does response curve of multiple experiments (N=6) showing enhancement of the effects of the agent MKC-231 on neuronal differentiation by combination with affixed concentration of AMPA agonist (0.32 μM AMPA). […] Data is presented as the percentage of the neuronal positive control, with basal media values subtracted.
Experiments with various concentrations of MKC-231 alone or with 0.316 μM of an AMPA agonist (AMPA) were carried out generally as described in Example 1 for neuronal differentiation. […] The data also indicate that MKC-231 apparently exerts some of its neurogenic effect as an AMPA potentiator or sensitizer. Also see FIG. 6 relating to BCI-540 in combination with AMPA and neuronal differentiation.

Human Neural Stem Cells [2] = experiment: MKC-231 in combination with an AMPA antagonist (NBQX), neuronal differentiation of human neural stem cells; type: cell-based
Method: FIG. 7 is a dose-response curve showing inhibition of the effects of the agent MKC-231 on neuronal differentiation by combination with an AMPA antagonist (NBQX). Data is presented as the percentage of the neuronal positive control, with basal media values subtracted.
Experiments with various concentrations of MKC-231 alone or with 1.0 μM of an AMPA antagonist (NBQX) were carried out generally as described in Example 1 for neuronal differentiation. […] The data also indicate that MKC-231 exerts some of its neurogenic effect as through the AMPA receptor activation.

hNSCs = experiment: Astrocyte differentiation of hNSCs (GFAP staining); type: cell-based, human
Method: Experiments were carried out as described in Example 1, except the positive control for astrocyte differentiation contained mitogen-free test media with positive control for astrocyte differentiation, and cells were stained with GFAP antibody.

Human Neural Stem Cells [3] = experiment: Toxic/trophic effect on human neural stem cells (Hoechst 33342 cell count); type: cell-based; settings: concentrations up to 31.6 μM
Method: Experiments were carried out as described in Example 1, except that the cells were stained with a nuclear dye (Hoechst 33342).
The data therein is shown as a percentage of the basal media cell count. Concentrations that are toxic fall below 80% of the basal cell count. Trophic compounds show dose dependent increases in cell count.

[4] = system: Human neural stem cells (hNSCs); experiment: Neuronal differentiation of human neural stem cells (TUJ-1 staining); type: cell-based
Description: Human neural stem cells (hNSCs) were isolated and grown in monolayer culture, plated, treated with varying concentrations of MKC-231 (test compound), and stained with TUJ-1 antibody, as described in U.S. Provisional Application No. 60/697,905 (incorporated by reference). Mitogen-free test media with a positive control for neuronal differentiation was used along with basal media without growth factors as a negative control.
The dose response curve of the neuronal positive control is included as a reference. The data is presented as a percent of neuronal positive control.

male F344 rats [5] = experiment: Hippocampal neurogenesis in rat (BrdU); type: in vivo
Method: BCI-540 was administered to male F344 rats by oral gavage once daily for 28 days (1.0 and 4.0 mg/kg/day, p.o.). BrdU was administered once daily for 5 days (days 9 to 14, 100 mg/kg/day, i.p.). Animals were sacrificed on day 28. Brains were removed and processed for evaluation of neurogenesis.
The y-axis represents percent change compared to vehicle control. The x-axis indicates treatment with vehicle set to 100% (black bar) and BCI-540 dosed at 1.0 and 4.0 mg/kg/day (black hatched bars). The black line indicates 100% of vehicle control.

male Sprague Dawley rats = experiment: Elevated plus maze (animal model of anxiety); type: in vivo, rat
Method: BCI-540 was administered to male Sprague Dawley rats by oral gavage once daily for 21 days (1.0 mg/kg/day, p.o.). As a positive control, the anxiolytic diazepam (1.5 mg/kg, i.p.) was administered one time, 30 minutes prior to testing.
The y-axis represents percent time on the open arm. The x-axis indicates treatment with vehicle (black bar), positive control diazepam (gray bar), and BCI-540 treated animals (black hatched bars) (n=15/group).

[6] = target: acetylcholinesterase (AChE) (Homo sapiens, UniProt P22303); settings: cited from earlier work
male F344 rats [7] = experiment: Novelty suppressed feeding in rat; type: in vivo; settings: for change in latency to eat the food pellet: 21-day administration
Method: BCI-540 was administered to male F344 rats by oral gavage once daily for 21 days (1.0 mg/kg/day, p.o.). Fluoxetine was administered by oral gavage once daily for 21 days (10 mg/kg/day, p.o.). BrdU was administered once daily for 5 days (days 9 to 14, 100 mg/kg/day, i.p.). Animals were tested after 21 days of drug administration.
Shown in FIG. 9 is the change in latency to eat compared to vehicle control (±SEM). The y-axis represents percent change compared to vehicle control. The x-axis indicates treatment. Vehicle is set to 100%. The black line indicates 100% of vehicle control.

[8] = cited from earlier work; for stability at room temperature and during storage: room temperature (about 25° C.), over time
[9] = 1.0 mg/kg daily p.o. for 21 days

Sequence of acetylcholinesterase (AChE) (P22303 32-614, species assumed): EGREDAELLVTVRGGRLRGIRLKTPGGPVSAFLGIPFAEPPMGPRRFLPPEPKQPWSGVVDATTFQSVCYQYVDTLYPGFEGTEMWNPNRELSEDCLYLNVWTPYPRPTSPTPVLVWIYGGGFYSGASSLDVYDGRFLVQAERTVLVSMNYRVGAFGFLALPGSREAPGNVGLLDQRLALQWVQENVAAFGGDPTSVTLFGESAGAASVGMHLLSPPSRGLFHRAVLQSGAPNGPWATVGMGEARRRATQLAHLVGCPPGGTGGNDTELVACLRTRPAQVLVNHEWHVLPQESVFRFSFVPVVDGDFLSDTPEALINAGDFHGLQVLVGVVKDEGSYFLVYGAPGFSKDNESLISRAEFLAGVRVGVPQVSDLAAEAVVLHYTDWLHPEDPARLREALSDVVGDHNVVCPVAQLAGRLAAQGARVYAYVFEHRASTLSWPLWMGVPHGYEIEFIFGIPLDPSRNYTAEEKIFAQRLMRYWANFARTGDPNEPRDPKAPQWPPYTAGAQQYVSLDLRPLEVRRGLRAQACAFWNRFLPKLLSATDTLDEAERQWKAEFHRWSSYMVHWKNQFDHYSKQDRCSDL

Compound: Cc1o[nH]c(=O)c1CC(N)C(=O)O (stereo not drawn) [AMPA, reference compound]
- effect of AMPA agonist on MKC-231 stimulated neuronal differentiation (Human Neural Stem Cells [1]; 0.316 μM AMPA): enhances the stimulation of neuronal differentiation
- neuronal differentiation by AMPA alone (Human Neural Stem Cells [1]; 0.32 μM AMPA alone (FIG. 6)): does not promote neuronal differentiation alone

Compound: Cc1oc2nc3c(c(NC(=O)CN4CCCC4=O)c2c1C)CCCC3 [MKC-231, 2-(2-oxypyrrolidin-1-yl)-N-(2,3-dimethyl-5,6,7,8-tetrahydrofuro(2,3-b)quinolin-4-yl)acetoamide]
- EC50 (Human Neural Stem Cells [2]; Homo sapiens, Neural stem cell, with 1.0 μM NBQX (FIG. 7)): > 31.6 µM
- EC50 (Human Neural Stem Cells [1]; read-out: EC50 neuronal differentiation, MKC-231 in the presence of a fixed concentration AMPA): 220 nM
- EC50 (Human Neural Stem Cells [1]; average of multiple experiments (N=6) (FIG. 6), read-out: EC50 neuronal differentiation, MKC-231 alone): 3700 nM
- EC50 (Human Neural Stem Cells [1]; with 0.316 μM AMPA agonist (AMPA) (FIG. 4), read-out: EC50 neuronal differentiation, MKC-231 in combination with AMPA): 990 nM
- astrocyte differentiation above basal media values (hNSCs; FIG. 2): no significant increase
- EC50 astrocyte differentiation (hNSCs; percent of astrocyte positive control, basal media subtracted (FIG. 2)): undeterminable
- toxicity (cell count below 80% of basal cell count) (Human Neural Stem Cells [3]): no toxicity
- neuronal differentiation above background levels ([4]; FIG. 1): promoted neuronal differentiation above background levels
- EC50 ([4]; Homo sapiens, Neural stem cell, MKC-231 alone, percent of neuronal positive control, basal media subtracted (FIG. 1)): 5.1 µM
- increase in new neurons within the granule cell layer of the dentate gyrus compared to vehicle control (male F344 rats [5]; 1.0 mg/kg daily p.o. for 28 days): 22%
- increase in new neurons within the granule cell layer of the dentate gyrus compared to vehicle control (male F344 rats [5]; 4.0 mg/kg daily p.o. for 28 days): 20%
- change in new neurons within the granule cell layer of the dentate gyrus (male F344 rats [5]; 1.0 and 4.0 mg/kg daily for 28 days): statistically significant increase
- increase in the time spent on the open arms (male Sprague Dawley rats; [9]): 20%
- time spent on the open arms (male Sprague Dawley rats; chronic administration, 1.0 mg/kg/day p.o., 21 days): significant increase
- AChE inhibitory activity [6]: does not have such inhibitory activity
- decrease in latency to eat compared to vehicle control (male F344 rats [7]; [9]): 35%
- change in latency to eat the food pellet (male F344 rats [7]): statistically significant decrease

Compound: NS(=O)(=O)c1cccc2c1c([N+](=O)[O-])cc1nc(O)c(O)nc12 [NBQX, reference compound]
- effect of AMPA antagonist on MKC-231 stimulated neuronal differentiation (Human Neural Stem Cells [2]; 1.0 μM NBQX): inhibits the stimulation of neuronal differentiation

Compound: CN1C(=O)CN=C(c2ccccc2)c2cc(Cl)ccc21 [diazepam, reference compound]
- increase in time spent on the open arms (male Sprague Dawley rats; single administration, 1.5 mg/kg i.p., 30 minutes prior to testing): 12%

Compound: CNCCC(Oc1ccc(C(F)(F)F)cc1)c1ccccc1 (stereo not drawn) [fluoxetine, reference compound]
- decrease in latency to eat compared to vehicle control (male F344 rats [7]; 10.0 mg/kg daily p.o. for 21 days): 38%
- change in latency to eat the food pellet (male F344 rats [7]): statistically significant decrease

Compound: Cc1oc2nc3c(c(NC(=O)CC4CNC(=O)C4)c2c1C)CCCC3 (stereo not drawn) [form A crystal, N-(2,3-dimethyl-5,6,7,8-tetrahydrofuro[2,3-b]quinolin-4-yl)-2-(2-oxopyrrolidin-4-yl)acetamide]
- stability at room temperature and during storage [8]: better stability
- stability in storage [8]: greater stability in storage than the form B crystal

Compound: Cc1oc2nc3c(c(NC(=O)CC4CNC(=O)C4)c2c1C)CCCC3 (stereo not drawn) [form B crystal, N-(2,3-dimethyl-5,6,7,8-tetrahydrofuro[2,3-b]quinolin-4-yl)-2-(2-oxopyrrolidin-4-yl)acetamide]
- stability at room temperature and during storage [8]: lower stability
- stability in storage [8]: lower stability in storage than the form A crystal
